Data on 33 compounds can be found in patent publication US10822337B2, “TGF-β inhibitorC” (Rigel Pharmaceuticals, Inc., priority 2015, dated 2020).

Assay [1] concerns TGF-β signaling (TGF-β pSMAD, MPC-11). The experiment in a line: AlphaScreen SureFire SMAD3 (p-Ser423/425) assay, inhibition of TGF-β signaling. In kind it is cell-based. The settings on record: Mus musculus, p-SMAD-3 (Ser423/425) in cell lysate after TGF-β stimulation. In a few lines:
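Phosphorylation of endogenous SMAD-3 at Ser423/425 was quantified with an AlphaScreen SureFire assay. Cells were exposed to compound for about 10 minutes, stimulated with TGF-β, and lysed in 1× Lysis Buffer. Lysate (5 μL) was combined with Reaction/Activation buffer plus Acceptor beads for 2 hours, then Donor beads for 1½ hours, and read on a plate reader.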

The test system of assay [2] is GDF8 signaling (GDF pSMAD, MPC11). The experiment in a line: AlphaScreen SureFire SMAD3 (p-Ser423/425) assay, inhibition of GDF8 signaling. The settings on record: Mus musculus, MPC-11, p-SMAD-3 (Ser423/425) in cell lysate after GDF8 stimulation. In kind it is cell-based.

The term IC50 denotes the concentration that inhibits the measured activity by half. With `Fc1cccc(-c2nn3c(c2-c2ccc4nccnc4c2)CCC3)c1` [Compound 82, 6-(2-(3-Fluorophenyl)-5,6-dihydro-4H-pyrrolo[1,2-b]pyrazol-3-yl)quinoxaline], the IC50 in assay [1] came out at 1950 nM; in assay [2] it was 330 nM.

`Fc1ccc(-c2nn3c(c2-c2ccc4[nH]ncc4c2)CCC3)cc1F` [Compound 83, 5-(2-(3,4-Difluorophenyl)-5,6-dihydro-4H-pyrrolo[1,2-b]pyrazol-3-yl)-1H-indazole]: the figures for the IC50 in assay [1] and in assay [2] were 517 nM and 70.4 nM, respectively.

On to `Fc1ccc(-c2nn3c(c2-c2ccc4cn[nH]c4c2)CCC3)cc1F` [Compound 84, 6-(2-(3,4-Difluorophenyl)-5,6-dihydro-4H-pyrrolo[1,2-b]pyrazol-3-yl)-1H-indazole], for which the IC50 turned out to be 1610 nM in assay [1] and 326 nM in assay [2].

Consider `Cn1cnc2ccc(-c3c(-c4ccc(F)c(F)c4)nn4c3CCC4)cc21` [Compound 85, 6-(2-(3,4-Difluorophenyl)-5,6-dihydro-4H-pyrrolo[1,2-b]pyrazol-3-yl)-1-methyl-1H-benzo[d]imidazole], for which the IC50 in assay [1] is 251 nM; in assay [2], 106 nM.

Turning to `Fc1ccc(-c2nn3c(c2-c2ccc4nccn4c2)CCC3)cc1F` [Compound 86, 6-(2-(3,4-Difluorophenyl)-5,6-dihydro-4H-pyrrolo[1,2-b]pyrazol-3-yl)imidazo[1,2-a]pyridine], the results for the IC50 in assay [1] and in assay [2] were 926 nM and 272 nM, respectively.

For `Fc1ccc(-c2nn3c(c2-c2ccc4ncsc4c2)CCC3)cc1F` [Compound 87, 6-(2-(3,4-Difluorophenyl)-5,6-dihydro-4H-pyrrolo[1,2-b]pyrazol-3-yl)benzo[d]thiazole], the figures for the IC50 in assay [1] and in assay [2] were 1010 nM and 364 nM, respectively.

For the compound `Fc1ccc(-c2nn3c(c2-c2ccc4ncccc4c2)CCC3)cc1F` [Compound 88, 6-(2-(3,4-Difluorophenyl)-5,6-dihydro-4H-pyrrolo[1,2-b]pyrazol-3-yl)quinoline], the results for the IC50 in assay [1] and in assay [2] were 9580 nM and 1060 nM, respectively.

For the compound `Fc1ccc(-c2nn3c(c2-c2ccc4nccnc4c2)CCC3)cc1F` [Compound 89, 6-(2-(3,4-Difluorophenyl)-5,6-dihydro-4H-pyrrolo[1,2-b]pyrazol-3-yl)quinoxaline], the IC50 worked out at 1620 nM in assay [1] and 418 nM in assay [2].

Consider `c1cc2c(cc1-c1nn3c(c1-c1ccc4[nH]ncc4c1)CCC3)OCO2` [Compound 90, 5-(2-(Benzo[d][1,3]dioxol-5-yl)-5,6-dihydro-4H-pyrrolo[1,2-b]pyrazol-3-yl)-1H-indazole], for which the values for the IC50 in assay [1] and in assay [2] were 4020 nM and 776 nM, respectively.

Take `Fc1ccc(-c2nn3c(c2-c2ccc4[nH]ncc4c2)CCC3)c(F)c1` [Compound 91, 5-(2-(2,4-Difluorophenyl)-5,6-dihydro-4H-pyrrolo[1,2-b]pyrazol-3-yl)-1H-indazole]: the results for the IC50 in assay [1] and in assay [2] were 840 nM and 262 nM, respectively.

Take `Fc1ccc(-c2nn3c(c2-c2ccc4cn[nH]c4c2)CCC3)c(F)c1` [Compound 92, 6-(2-(2,4-Difluorophenyl)-5,6-dihydro-4H-pyrrolo[1,2-b]pyrazol-3-yl)-1H-indazole]: the IC50 in assay [1] stood at 1100 nM; in assay [2] it was 228 nM.

With `Cn1cnc2ccc(-c3c(-c4ccc(F)cc4F)nn4c3CCC4)cc21` [Compound 93, 6-(2-(2,4-Difluorophenyl)-5,6-dihydro-4H-pyrrolo[1,2-b]pyrazol-3-yl)-1-methyl-1H-benzo[d]imidazole], the IC50 stood at 319 nM in assay [1] and 77.2 nM in assay [2].

In the case of `Fc1ccc(-c2nn3c(c2-c2ccc4nccn4c2)CCC3)c(F)c1` [Compound 94, 6-(2-(2,4-Difluorophenyl)-5,6-dihydro-4H-pyrrolo[1,2-b]pyrazol-3-yl)imidazo[1,2-a]pyridine], the IC50 came out at 482 nM in assay [1] and 77 nM in assay [2].

On to `Fc1ccc(-c2nn3c(c2-c2ccc4ncccc4c2)CCC3)c(F)c1` [Compound 95, 6-(2-(2,4-Difluorophenyl)-5,6-dihydro-4H-pyrrolo[1,2-b]pyrazol-3-yl)quinoline], for which the results for the IC50 in assay [1] and in assay [2] were 3740 nM and 559 nM, respectively.

`Fc1ccc(-c2nn3c(c2-c2ccc4nccnc4c2)CCC3)c(F)c1` [Compound 96, 6-(2-(2,4-Difluorophenyl)-5,6-dihydro-4H-pyrrolo[1,2-b]pyrazol-3-yl)quinoxaline]: the IC50 in assay [1] was determined as 668 nM; in assay [2], 156 nM.

With `Fc1ccc(-c2nn3c(c2-c2ccc4ncsc4c2)CCC3)c(F)c1` [Compound 97, 6-(2-(2,4-Difluorophenyl)-5,6-dihydro-4H-pyrrolo[1,2-b]pyrazol-3-yl)benzo[d]thiazole], the IC50 in assay [1] was determined as 116 nM; in assay [2], 26.2 nM.

On to `COc1ccc(-c2nn3c(c2-c2ccc4[nH]ncc4c2)CCC3)cc1` [Compound 98, 5-(2-(4-Methoxyphenyl)-5,6-dihydro-4H-pyrrolo[1,2-b]pyrazol-3-yl)-1H-indazole], for which the IC50 in assay [1] turned out to be 984 nM; in assay [2], 295 nM.

In the case of `COc1ccc(-c2nn3c(c2-c2ccc4cn[nH]c4c2)CCC3)cc1` [Compound 99, 6-(2-(4-Methoxyphenyl)-5,6-dihydro-4H-pyrrolo[1,2-b]pyrazol-3-yl)-1H-indazole], the results for the IC50 in assay [1] and in assay [2] were 1650 nM and 322 nM, respectively.

In the case of `COc1ccc(-c2nn3c(c2-c2ccc4ncsc4c2)CCC3)cc1` [Compound 100, 6-(2-(4-Methoxyphenyl)-5,6-dihydro-4H-pyrrolo[1,2-b]pyrazol-3-yl)benzo[d]thiazole], the IC50 came out at 3740 nM in assay [1] and 699 nM in assay [2].

For `COc1ccc(-c2nn3c(c2-c2ccc4nccnc4c2)CCC3)cc1` [Compound 102, 6-(2-(4-Methoxyphenyl)-5,6-dihydro-4H-pyrrolo[1,2-b]pyrazol-3-yl)quinoxaline], the IC50 was 4180 nM in assay [1] and 685 nM in assay [2].

Consider `Fc1ccc(-c2nn3c(c2-c2ccc4ncnn4c2)CCC3)cc1` [Compound 103, 6-(2-(4-Fluorophenyl)-5,6-dihydro-4H-pyrrolo[1,2-b]pyrazol-3-yl)-[1,2,4]triazolo[1,5-a]pyridine], for which the IC50 is 520 nM in assay [1] and 131 nM in assay [2].

`Cc1cccc(-c2nn3c(c2-c2ccc4ncnn4c2)CCC3)c1` [Compound 104, 6-(2-(m-Tolyl)-5,6-dihydro-4H-pyrrolo[1,2-b]pyrazol-3-yl)-[1,2,4]triazolo[1,5-a]pyridine]: the IC50 in assay [1] came to 83 nM; in assay [2], 26.6 nM.

On to `Cc1cc(-c2nn3c(c2-c2ccc4ncnn4c2)CCC3)ccc1F` [Compound 105, 6-(2-(4-Fluoro-3-methylphenyl)-5,6-dihydro-4H-pyrrolo[1,2-b]pyrazol-3-yl)-[1,2,4]triazolo[1,5-a]pyridine], for which the IC50 in assay [1] is 112 nM; in assay [2], 34 nM.

As for `COc1cccc(-c2nn3c(c2-c2ccc4ncnn4c2)CCC3)c1` [Compound 106, 6-(2-(3-Methoxyphenyl)-5,6-dihydro-4H-pyrrolo[1,2-b]pyrazol-3-yl)-[1,2,4]triazolo[1,5-a]pyridine], the values for the IC50 in assay [1] and in assay [2] were 600 nM and 159 nM, respectively.

As to `Clc1cccc(-c2nn3c(c2-c2ccc4ncnn4c2)CCC3)c1` [Compound 107, 6-(2-(3-Chlorophenyl)-5,6-dihydro-4H-pyrrolo[1,2-b]pyrazol-3-yl)-[1,2,4]triazolo[1,5-a]pyridine], the IC50 was 152 nM in assay [1] and 34.7 nM in assay [2].

With `FC(F)(F)c1cccc(-c2nn3c(c2-c2ccc4ncnn4c2)CCC3)c1` [Compound 108, 6-(2-(3-Trifluoromethylphenyl)-5,6-dihydro-4H-pyrrolo[1,2-b]pyrazol-3-yl)-[1,2,4]triazolo[1,5-a]pyridine], the IC50 was determined as 159 nM in assay [1] and 39.8 nM in assay [2].

For the compound `Fc1cccc(-c2nn3c(c2-c2ccc4ncnn4c2)CCC3)c1` [Compound 109, 6-(2-(3-Fluorophenyl)-5,6-dihydro-4H-pyrrolo[1,2-b]pyrazol-3-yl)-[1,2,4]triazolo[1,5-a]pyridine], the IC50 was found to be 927 nM in assay [1] and 132 nM in assay [2].

With `Fc1ccc(-c2nn3c(c2-c2ccc4ncnn4c2)CCC3)cc1F` [Compound 110, 6-(2-(3,4-Difluorophenyl)-5,6-dihydro-4H-pyrrolo[1,2-b]pyrazol-3-yl)-[1,2,4]triazolo[1,5-a]pyridine], the IC50 turned out to be 584 nM in assay [1] and 126 nM in assay [2].

Turning to `Fc1ccc(-c2nn3c(c2-c2ccc4ncnn4c2)CCC3)c(F)c1` [Compound 111, 6-(2-(2,4-Difluorophenyl)-5,6-dihydro-4H-pyrrolo[1,2-b]pyrazol-3-yl)-[1,2,4]triazolo[1,5-a]pyridine], the IC50 in assay [1] came to 231 nM; in assay [2], 61.3 nM.

On to `Fc1cc(F)c(-c2nn3c(c2-c2ccc4[nH]ncc4c2)CCC3)cc1F` [Compound 112, 5-(2-(2,4,5-Trifluorophenyl)-5,6-dihydro-4H-pyrrolo[1,2-b]pyrazol-3-yl)-1H-indazole], for which the values for the IC50 in assay [1] and in assay [2] were 816 nM and 137 nM, respectively.

Consider `Fc1cc(F)c(-c2nn3c(c2-c2ccc4cn[nH]c4c2)CCC3)cc1F` [Compound 113, 6-(2-(2,4,5-Trifluorophenyl)-5,6-dihydro-4H-pyrrolo[1,2-b]pyrazol-3-yl)-1H-indazole], for which the IC50 is 1470 nM in assay [1] and 226 nM in assay [2].

As for `Cn1cnc2ccc(-c3c(-c4cc(F)c(F)cc4F)nn4c3CCC4)cc21` [Compound 114, 1-Methyl-6-(2-(2,4,5-trifluorophenyl)-5,6-dihydro-4H-pyrrolo[1,2-b]pyrazol-3-yl)-1H-benzo[d]imidazole], the IC50 in assay [1] was determined as 87.6 nM; in assay [2], 24 nM.

`Fc1cc(F)c(-c2nn3c(c2-c2ccc4nccn4c2)CCC3)cc1F` [Compound 115, 6-(2-(2,4,5-Trifluorophenyl)-5,6-dihydro-4H-pyrrolo[1,2-b]pyrazol-3-yl)imidazo[1,2-a]pyridine]: the IC50 in assay [1] came out at 373 nM; in assay [2], 66.2 nM.
